Key:
[1] = Tonicity of 10% co-solvent solutions; assay type: physicochemical; conditions: solutions with 10% co-solvent
[2] = system: human heparinized whole blood (erythrocytes); experiment: In vitro hemolysis test with co-solvents (study procedure, Drabkin's solution, absorbance 540 nm); conditions: for max. well tolerated co-solvent concent: co-solvent diluted with NaCl 0.9%, intersection of fitted sigmoidal curve with 5% hemolysis line, 10 min at 37° C.; for hemolysis value: human, 10 min, 10 % v/v
Method: A test was developed to determine the hemolytic activity of a pharmaceutical formulation. The test utilized fresh anticoagulated human blood. In general, the test was performed by diluting the pharmaceutical product with fresh saline, then mixing with an aliquot of fresh human whole blood. After incubating at 37° C., the test solutions were centrifuged, and the concentration of hemoglobin was measured in the supernatant using spectroscopic techniques.
To determine the 100% hemolysis value, equal volumes of […] and blood were mixed, centrifuged, and mixed again. 30 μl was transferred to a plate, and 170 μl of Drabkin's reagent was added. The 100% hemolysis value was indicated as Value A.
To determine the 0% hemolysis value, equal volumes of saline and blood were mixed. The 0% hemolysis value is indicated as Value B.
The dilutions were performed in glass or plastic tubes with a diameter of approximately 12 mm and a length of approximately 100 mm.
400 μl of whole blood was added to each tube. The components were carefully homogenized. The tubes were incubated for 10 minutes at 37° C., homogenized again and then centrifuged for 10 minutes at 2500×g. The contents of the tube were mixed for Value A (100% hemolysis) and then transferred 3 times 30 μl of each tube of the supernatant to a 96-well plate (flat bottom) and 170 μl of Drabkin's solution was added to each well containing solution. The plate was read in a plate reader at wavelength 540 nm.
For evaluation of the test results from the plate reader reading at wavelength 540 nm, the mean values of the triplicates were calculated. The percent hemolytic activity was determined according to the following formula:
wherein: % HA=percent hemolytic activity; A=Value for 100% HA; B=Value for 0% HA; C=Value for tested solution.
Dilutions of the co-solvents were prepared in tubes. An equal volume of human heparinized whole blood was added and homogenized. The test co-solvents were diluted in sterile, pyrogen-free water and sterile, pyrogen-free saline.
The following equation was used to obtain a curve fitting of the hemolysis data: […]
The maximal well tolerated co-solvent concentration was obtained by calculating the intersection of the sigmoidal curves with the horizontal line at hemolysis, i.e., 5%.

Molecule	tonicity of the solution [1]	flocculation in hemolysis test [2]	hemolysis at the lowest tested co-solvent concentration (in words) [2]	max. well tolerated co-solvent concent [2] [%]	hemolysis value [2] [%]	co-solvent concentration at which significant (>10%) hemolysis is induced [2]	effect of switch from water for injection to saline as diluent on hemolytic behavior [2]
CCO [Ethanol]	clearly hypertonic	significant flocculation	high hemolysis	29	~100	–	–
CC(O)CO (stereo not drawn) [PG, Propylene glycol]	clearly hypertonic	–	high hemolysis	48	~100	–	–
Polyethylene glycol 300 [PEG 300]	isotonic	–	–	–	–	60-70%	did not drastically modify the hemolytic behavior
Polyethylene glycol 400 [PEG 400]	close to isotonicity	–	–	–	–	50-60%	did not drastically modify the hemolytic behavior

Reference: patent US20220137028A1, “In Vitro Assays as Indicator of Local Tolerance” (Lonza Ltd, priority 2019, published 2022)
